# From patent US8207139B2, “Function of GPR4 in vascular inflammatory response to acidosis and related methods” (priority 2009, dated 2012)
# “Also recorded” adds a separate entry of the source.
# Experiments:
# [1] = tested on: acidosis/GPR4-induced HUVEC cell adhesion; assay: HUVEC-U937 monocyte cell adhesion assay; type: cell-based, human; settings: HUVEC cells treated with acidic pH, attachment of U937 monocytes as readout
# Description: Cell adhesion assay: To examine the adhesion of HUVEC endothelial cells and to model the interaction between endothelium and immune cells, the HUVEC-U937 monocyte adhesion assay was used as a functional readout. […] In brief, HUVEC endothelial cells were cultured in a 24-well plate to form a confluent monolayer, and treated with EGM-2/HEM media at various pHs for 5 to 15 hours. After the pH treatment, HUVEC cells were washed once with DMEM medium (pH 7.4), and then U937 monocytic cells resuspended in DMEM with 10% fetal bovine serum (FBS) were added to the HUVEC monolayer to allow adhesion for 1 hour at pH 7.4. Non-adherent cells were removed by gently washing several times with DMEM medium.
# Effects on HUVEC cell adhesion: HUVEC cells with GPR4 siRNA or control siRNA were treated with different pHs, and the U937-HUVEC cell adhesion assay was performed.
# [2] = tested on: acidosis/GPR4-induced HUVEC cell adhesion; assay: HUVEC-U937 monocyte cell adhesion assay; type: cell-based, human; settings: treatment with cAMP pathway activators, attachment of U937 monocytes as readout
Molecule,effect on acidosis/GPR4-induced HUVEC cell adhesion [1],effect on adhesion of HUVEC cells [2]
"C[C@H]1O[C@@H](n2cnc3c(N)ncnc32)C[C@@H]1O [2′,5′-dideoxyadenosine]",reduced; also recorded: abolishes; also recorded: diminishes,
CO[C@@H]1[C@@H]2OP(=O)(O)OC[C@H]2O[C@H]1n1c(Sc2ccc(Cl)cc2)nc2c(N)ncnc21 [8-CPT-2Me-cAMP],,increases
Nc1ncnc2c1ncn2C1CCCO1 (centres unmarked) [SQ 22536],abolishes; also recorded: reduces,
O=S(=O)(NCCNC/C=C/c1ccc(Br)cc1)c1cccc2cnccc12 [H-89],did not affect; also recorded: does not affect,
pertussis toxin,,enhanced; also recorded: increases
